Reference: paper PMC12337661, “PIEZO1 mechanical insensitivity in generalized lymphatic dysplasia with the potential for pharmacological rescue” (iScience, 2025)

Legend:
R2351Q mPIEZO1 = target: T1, R2351Q mPIEZO1 (Mus musculus, UniProt E2JF22, R2351Q); assay: Intracellular Ca2+ measurement (fura-2), T-REx-293 cells stably transfected; assay type: cell-based
T1 construct: expressed in transfected cells
Procedure: (§1) T-REx-293 cell line was transfected with pcDNA4/TO-mPIEZO1 constructs using Lipofectamine 2000 (Invitrogen) as above and treated with 200 μg.mL^−1 zeocin (InvivoGen) to select for stably transfected cells. At least two strongly expressing clonal cell lines were established and tested for each variant. All cell lines were maintained in Dulbecco’s Modified Eagle’s medium (Invitrogen) supplemented with 10% heat-inactivated fetal calf serum (Sigma-Aldrich), penicillin (50 units.mL^−1) and streptomycin (0.5 mg.mL^−1) (Sigma-Aldrich) and grown at 37°C in a humidified 5% CO2 incubator.
(§2) For intracellular Ca^2+ assays, cells were plated at 80–90% confluence in 96-well plates 24 h prior to recordings (6–8 × 10^4 cells per well). […] Cells were washed with SBS and incubated at room temperature for 20 min prior to recordings. Equal volumes of 2x concentrated compounds were injected to test for acute channel activation. Pre-incubation with compounds occurred during the 20 min prior to recordings. To expose cell membranes to hypo-osmolality, an equal volume of hypotonic SBS (containing only 35 mM NaCl) was injected onto the cells. Measurements were made on a fluorescence plate reader (Flexstation III, Molecular Devices) at room temperature (21 ± 2°C). Fura-2 was excited at 340 nm and 380 nm and emitted light collected at 510 nm, with measurements shown as the change in fluorescence (F) ratio (ΔF340/380).
(§3) KC41 (Dooku1) was prepared as described.[28] All purchased chemicals and solvents were used without further purification unless otherwise stated. All compounds were at least 95% pure by 1H NMR. 1H Nuclear Magnetic Resonance spectra were recorded at 500 MHz using a Bruker DRX 500 instrument or at 400 MHz using a Bruker DPX 400. 1H spectra are referenced based on the residual proton in the solvent (e.g., the CHCl3, 0.01% in 99.99% CDCl3). Coupling constants (J) are reported to the nearest 0.1 Hz. 13C NMR spectra were recorded at 125 MHz on 500 MHz spectrometers or at 100 MHz on 400 MHz spectrometers. LC-MS was performed on a Bruker Daltronics running a gradient of increasing acetonitrile (5–95%) in H2O both containing 0.1% formic acid at 1 mL.min^−1, on a short path C18 reverse phase column, detecting compounds with both a diode array detector and a Bruker mass spectrum analyser. HRMS was performed on a Bruker Daltonics micrOTOF using positive electrospray ionisation (ES+). Automated column chromatograph was carried out using a Biotage Isolera Four, using either Sfär Silica D or KP-Silica cartridges. HPLC was performed on an Agilent 1290 Infinity Series equipped with a UV detector and Hyperprep C18 reverse phase column. Key to NMR abbreviations: s (singlet), br s (broad singlet) d (doublet), dd (doublet of doublets), ddd (doublet of doublets of doublets), t (triplet), dt (doublet of triples), q (quartet), m (multiplet), ap. t (apparent triplet). For experiments, Yoda1 and its analogues were prepared as 10 mM stock solutions in 100% dimethyl sulfoxide (DMSO) before serial dilution in DMSO and final dilution in aqueous solution. Cells were exposed to 0.1% DMSO for all concentrations of the compounds from 0 to 10 μM.

WT mPIEZO1 = target: T2, WT mPIEZO1 (Mus musculus, UniProt E2JF22); assay: as above; assay type: cell-based; conditions: 1.5 min exposure
T2 construct: expressed in transfected cells
T2 sequence (E2JF22 whole entry): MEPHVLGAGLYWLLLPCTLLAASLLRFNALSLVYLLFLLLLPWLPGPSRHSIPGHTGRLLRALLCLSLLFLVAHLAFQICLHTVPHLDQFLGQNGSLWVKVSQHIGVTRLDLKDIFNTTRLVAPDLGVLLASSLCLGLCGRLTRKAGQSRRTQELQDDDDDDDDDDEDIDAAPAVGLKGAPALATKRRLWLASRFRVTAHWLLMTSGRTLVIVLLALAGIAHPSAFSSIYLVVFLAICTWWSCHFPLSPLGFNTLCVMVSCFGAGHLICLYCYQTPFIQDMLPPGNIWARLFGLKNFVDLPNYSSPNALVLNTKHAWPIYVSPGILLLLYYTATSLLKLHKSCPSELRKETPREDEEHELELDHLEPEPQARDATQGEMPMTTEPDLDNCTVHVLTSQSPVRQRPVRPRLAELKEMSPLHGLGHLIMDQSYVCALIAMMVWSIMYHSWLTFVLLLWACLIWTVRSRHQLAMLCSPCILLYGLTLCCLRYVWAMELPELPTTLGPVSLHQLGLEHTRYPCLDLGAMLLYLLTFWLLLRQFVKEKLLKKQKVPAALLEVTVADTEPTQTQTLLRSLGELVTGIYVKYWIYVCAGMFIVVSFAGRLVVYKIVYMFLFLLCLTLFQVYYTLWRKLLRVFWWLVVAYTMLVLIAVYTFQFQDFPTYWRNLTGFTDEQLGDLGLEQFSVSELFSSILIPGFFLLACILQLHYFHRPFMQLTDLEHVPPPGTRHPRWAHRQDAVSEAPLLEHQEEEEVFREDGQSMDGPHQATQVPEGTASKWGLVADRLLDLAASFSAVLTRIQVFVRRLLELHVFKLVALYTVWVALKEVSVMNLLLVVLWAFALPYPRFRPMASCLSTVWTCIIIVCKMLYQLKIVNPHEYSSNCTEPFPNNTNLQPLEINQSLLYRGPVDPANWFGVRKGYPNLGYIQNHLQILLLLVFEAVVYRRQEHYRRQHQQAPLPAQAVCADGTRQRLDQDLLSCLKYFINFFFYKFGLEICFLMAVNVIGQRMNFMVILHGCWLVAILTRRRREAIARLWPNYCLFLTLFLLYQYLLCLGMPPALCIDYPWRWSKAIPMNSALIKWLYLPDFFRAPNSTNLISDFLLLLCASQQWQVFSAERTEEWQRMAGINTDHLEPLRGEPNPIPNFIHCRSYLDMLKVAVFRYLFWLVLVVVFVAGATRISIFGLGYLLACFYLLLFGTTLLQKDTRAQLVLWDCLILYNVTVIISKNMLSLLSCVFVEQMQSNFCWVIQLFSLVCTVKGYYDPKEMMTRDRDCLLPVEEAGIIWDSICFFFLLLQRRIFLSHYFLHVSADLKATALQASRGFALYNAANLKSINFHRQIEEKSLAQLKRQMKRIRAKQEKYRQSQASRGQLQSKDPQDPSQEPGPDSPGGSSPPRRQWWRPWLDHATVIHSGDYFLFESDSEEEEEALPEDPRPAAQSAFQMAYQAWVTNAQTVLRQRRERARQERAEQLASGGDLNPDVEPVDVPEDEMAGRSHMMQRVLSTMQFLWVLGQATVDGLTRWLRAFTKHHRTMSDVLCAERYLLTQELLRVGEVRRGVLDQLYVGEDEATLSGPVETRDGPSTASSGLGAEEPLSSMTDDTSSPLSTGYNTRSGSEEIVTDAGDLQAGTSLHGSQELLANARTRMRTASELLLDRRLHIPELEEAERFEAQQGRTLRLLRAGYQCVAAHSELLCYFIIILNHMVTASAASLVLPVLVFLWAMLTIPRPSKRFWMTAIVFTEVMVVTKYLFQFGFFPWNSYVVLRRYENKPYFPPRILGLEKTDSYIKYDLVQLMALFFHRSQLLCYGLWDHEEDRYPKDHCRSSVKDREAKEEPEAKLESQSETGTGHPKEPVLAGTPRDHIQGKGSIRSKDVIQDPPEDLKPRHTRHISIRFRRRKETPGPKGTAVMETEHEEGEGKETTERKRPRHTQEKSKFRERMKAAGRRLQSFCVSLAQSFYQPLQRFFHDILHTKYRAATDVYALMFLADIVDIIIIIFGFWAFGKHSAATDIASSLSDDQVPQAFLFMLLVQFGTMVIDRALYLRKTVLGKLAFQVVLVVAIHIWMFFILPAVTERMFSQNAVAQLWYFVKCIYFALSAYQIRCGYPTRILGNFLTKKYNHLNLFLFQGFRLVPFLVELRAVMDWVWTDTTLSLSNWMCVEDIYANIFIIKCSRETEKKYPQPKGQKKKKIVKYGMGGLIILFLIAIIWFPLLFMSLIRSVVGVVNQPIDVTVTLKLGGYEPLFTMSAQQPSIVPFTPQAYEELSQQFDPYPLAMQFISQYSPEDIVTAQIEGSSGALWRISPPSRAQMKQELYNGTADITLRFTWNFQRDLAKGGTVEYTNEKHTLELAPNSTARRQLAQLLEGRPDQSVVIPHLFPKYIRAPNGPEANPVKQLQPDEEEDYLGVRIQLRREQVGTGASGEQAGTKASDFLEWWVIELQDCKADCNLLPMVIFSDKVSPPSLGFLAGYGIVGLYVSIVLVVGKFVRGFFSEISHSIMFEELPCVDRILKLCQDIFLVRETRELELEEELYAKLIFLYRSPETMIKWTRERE
Procedure: as §1, §2, §3

T1 sequence (E2JF22 whole entry R2351Q): as the sequence (E2JF22 whole entry) above, with R2351Q counted along it

## Clc1cccc(Cl)c1CSc1nnc(-c2cnccn2)s1 [Yoda1]
R2351Q mPIEZO1; R2351Q, 3 µM, time 30 s
  Mean (Ca2+ signal time course, Figure 4f): -0.5301
R2351Q mPIEZO1; R2351Q, 3 µM, time 35 s
  Mean (Ca2+ signal time course, Figure 4f): -0.09017
R2351Q mPIEZO1; R2351Q, 3 µM, time 40 s
  Mean (Ca2+ signal time course, Figure 4f): 0.3419
R2351Q mPIEZO1; R2351Q, 3 µM, time 45 s
  Mean (Ca2+ signal time course, Figure 4f): 0.4568
R2351Q mPIEZO1; R2351Q, 3 µM, time 50 s
  Mean (Ca2+ signal time course, Figure 4f): 0.5783
R2351Q mPIEZO1; R2351Q, 3 µM, time 55 s
  Mean (Ca2+ signal time course, Figure 4f): 0.623
R2351Q mPIEZO1; R2351Q, 3 µM, time 60 s
  Mean (Ca2+ signal time course, Figure 4f): 0.705
R2351Q mPIEZO1; R2351Q, 3 µM, time 65 s
  Mean (Ca2+ signal time course, Figure 4f): 0.7592
R2351Q mPIEZO1; R2351Q, 3 µM, time 70 s
  Mean (Ca2+ signal time course, Figure 4f): 0.7946
R2351Q mPIEZO1; R2351Q, 3 µM, time 75 s
  Mean (Ca2+ signal time course, Figure 4f): 0.8127
R2351Q mPIEZO1; R2351Q, 3 µM, time 80 s
  Mean (Ca2+ signal time course, Figure 4f): 0.8608
R2351Q mPIEZO1; R2351Q, 3 µM, time 85 s
  Mean (Ca2+ signal time course, Figure 4f): 0.9118
R2351Q mPIEZO1; R2351Q, 3 µM, time 90 s
  Mean (Ca2+ signal time course, Figure 4f): 0.9125
R2351Q mPIEZO1; R2351Q, 3 µM, time 95 s
  Mean (Ca2+ signal time course, Figure 4f): 0.9634
R2351Q mPIEZO1; R2351Q, 3 µM, time 100 s
  Mean (Ca2+ signal time course, Figure 4f): 1.007
R2351Q mPIEZO1; R2351Q, 3 µM, time 105 s
  Mean (Ca2+ signal time course, Figure 4f): 0.9869
R2351Q mPIEZO1; R2351Q, 3 µM, time 110 s
  Mean (Ca2+ signal time course, Figure 4f): 1.018
R2351Q mPIEZO1; R2351Q, 3 µM, time 115 s
  Mean (Ca2+ signal time course, Figure 4f): 0.9551
R2351Q mPIEZO1; R2351Q, 3 µM, time 120 s
  Mean (Ca2+ signal time course, Figure 4f): 0.9921
R2351Q mPIEZO1; R2351Q, 3 µM, time 125 s
  Mean (Ca2+ signal time course, Figure 4f): 1.006
R2351Q mPIEZO1; R2351Q, 3 µM, time 130 s
  Mean (Ca2+ signal time course, Figure 4f): 0.9688
R2351Q mPIEZO1; R2351Q, 20 min exposure, Yoda1 0.03 µM, Figure 4d
  Mean normalise fluorescence: 0.08092
R2351Q mPIEZO1; R2351Q, 20 min exposure, Yoda1 0.1 µM, Figure 4d
  Mean normalise fluorescence: -0.0159
R2351Q mPIEZO1; R2351Q, 20 min exposure, Yoda1 0.3 µM, Figure 4d
  Mean normalise fluorescence: 0.3248
R2351Q mPIEZO1; R2351Q, 20 min exposure, Yoda1 1 µM, Figure 4d
  Mean normalise fluorescence: 0.9747
R2351Q mPIEZO1; R2351Q, 20 min exposure, Yoda1 3 µM, Figure 4d
  Mean normalise fluorescence: 1
R2351Q mPIEZO1; R2351Q, 20 min exposure, Yoda1 10 µM, Figure 4d
  Mean normalise fluorescence: 0.9987
R2351Q mPIEZO1; long (20 min) exposure, normalized to 3 μM Yoda1
  EC50: 420 nM
R2351Q mPIEZO1; short 1.5-min exposure, 0.03 µM
  Mean normalise fluorescence: 0.00392
R2351Q mPIEZO1; short 1.5-min exposure, 0.1 µM
  Mean normalise fluorescence: 5.49E-04
R2351Q mPIEZO1; short 1.5-min exposure, 0.3 µM
  Mean normalise fluorescence: 0.02154
R2351Q mPIEZO1; short 1.5-min exposure, 1 µM
  Mean normalise fluorescence: 0.1259
R2351Q mPIEZO1; short 1.5-min exposure, 3 µM
  Mean normalise fluorescence: 0.401
R2351Q mPIEZO1; short 1.5-min exposure, 5 µM
  Mean normalise fluorescence: 0.6595
R2351Q mPIEZO1; short 1.5-min exposure, 10 µM
  Mean normalise fluorescence: 1
R2351Q mPIEZO1; versus WT
  Effect on mPIEZO1 channel function: loss of MA: LOF; reduced Y1 potency
WT mPIEZO1; 0.01 µM
  Mean normalise fluorescence: 0.01111
WT mPIEZO1; 0.03 µM
  Mean normalise fluorescence: 0.04107
WT mPIEZO1; 0.1 µM
  Mean normalise fluorescence: 0.2255
WT mPIEZO1; 0.3 µM
  Mean normalise fluorescence: 0.6112
WT mPIEZO1; 1 µM
  Mean normalise fluorescence: 0.8879
WT mPIEZO1; 3 µM
  Mean normalise fluorescence: 0.9862
WT mPIEZO1; 5 µM
  Mean normalise fluorescence: 1.0356
WT mPIEZO1; 10 µM
  Mean normalise fluorescence: 1
WT mPIEZO1; fitted Hill equation
  EC50: 240 nM
